Test results from the supplement of paper PMC10627819.

Key:
[1] = tested on: B. subtilis 168; experiment: fitness (endpoint OD595 vs no drug) (fraction); higher = more growth
How it was run: (§1)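 Bacterial fitness was scored as optical density at the stationary-phase transition relative to the robust mean of no-drug control wells. Scores are capped at 1. The growth data were OD595 readings every 30 min for 14 h at 37 °C, background-subtracted against the first reading, from 384-well plates inoculated at OD595 0.01 in TSB, LB Lennox or CY.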

[2] = tested on: S. aureus Newman; experiment: as above
How it was run: as §1

[3] = tested on: S. aureus DSM 20231; experiment: as above
How it was run: as §1

[4] = tested on: S. pneumoniae D39V; experiment: as above
How it was run: as §1

[5] = tested on: B. subtilis 168; experiment: Bliss interaction score (quartile over a dose matrix) (fitness difference); higher = more antagonism (negative = synergy)
How it was run: (§2)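 Growth was read as OD595 when cultures entered stationary phase, and each value was divided by the plate's robust no-drug mean and capped at 1. This normalised ratio is the fitness value, and fitness for each single drug came from the combination data. The Bliss score subtracts the expected fitness, taken as the product, from the observed fitness and is given as quartiles across technical, biological and donor/recipient replicates.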

[6] = tested on: S. aureus Newman; experiment: as above
How it was run: as §2

[7] = tested on: S. aureus DSM 20231; experiment: as above
How it was run: as §2

[8] = tested on: S. pneumoniae D39V; experiment: as above
How it was run: as §2
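For Bliss interaction score (quartile over a dose matrix) in this document: first quartile when negative (synergy) and third quartile when positive (antagonism).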
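For fitness (endpoint OD595 vs no drug) in this document: OD595 on entry to stationary phase over no-drug wells; at most 1.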

CCC[C@@H]1C[C@@H](C(=O)N[C@@H]([C@H]2O[C@H](SC)[C@H](O)[C@@H](O)[C@H]2O)[C@H](C)Cl)N(C)C1 [Clindamycin] + Cc1onc(-c2ccccc2)c1C(=O)N[C@@H]1C(=O)N2[C@@H]1SC(C)(C)[C@@H]2C(=O)O [Oxacillin]
fitness, [1], one replicate
Conditions | first compound 0.0039 µg/mL | first compound 0.0078 µg/mL | first compound 0.0156 µg/mL | first compound 0.0625 µg/mL | first compound 0.125 µg/mL | first compound 0.25 µg/mL
partner 0.0078 µg/mL | 0.953 | 0.903 | 0.828 | – | – | –
partner 0.0155 µg/mL | 0.963 | 0.897 | 0.805 | – | – | –
partner 0.031 µg/mL | 0.947 | 0.865 | 0.822 | – | – | –
partner 0.075 µg/mL | – | – | – | 0.237 | 0.0774 | 0.0582
partner 0.15 µg/mL | – | – | – | 0.063 | 0.066 | 0.0705
partner 0.3 µg/mL | – | – | – | 0.0546 | 0.0304 | 0.0517

Conditions | fitness
[1], first compound 0.0625 µg/mL, partner 0.002 µg/mL | 0.546
[1], first compound 0.0625 µg/mL, partner 0.004 µg/mL | 0.531
[1], first compound 0.0625 µg/mL, partner 0.008 µg/mL | 0.524
[1], first compound 0.125 µg/mL, partner 0.002 µg/mL | 0.396
[1], first compound 0.125 µg/mL, partner 0.004 µg/mL | 0.367
[1], first compound 0.125 µg/mL, partner 0.008 µg/mL | 0.367
[1], first compound 0.25 µg/mL, partner 0.002 µg/mL | 0.382
[1], first compound 0.25 µg/mL, partner 0.004 µg/mL | 0.372
[1], first compound 0.25 µg/mL, partner 0.008 µg/mL | 0.361
[2], first compound 0.0312 µg/mL, partner 0.0156 µg/mL | 0.71
[2], first compound 0.0312 µg/mL, partner 0.0312 µg/mL | 0.673
[2], first compound 0.0312 µg/mL, partner 0.0625 µg/mL | 0.557
[2], first compound 0.0625 µg/mL, partner 0.0625 µg/mL | 0.31
[2], first compound 0.125 µg/mL, partner 0.0156 µg/mL | 0.189
[2], first compound 0.125 µg/mL, partner 0.0312 µg/mL | 0.105
[2], first compound 0.125 µg/mL, partner 0.0625 µg/mL | 0.0973
[3], first compound 0.0312 µg/mL, partner 0.0312 µg/mL | 0.486
[3], first compound 0.0312 µg/mL, partner 0.0625 µg/mL | 0.355
[3], first compound 0.0625 µg/mL, partner 0.0156 µg/mL | 0.0861
[3], first compound 0.0625 µg/mL, partner 0.0312 µg/mL | 0.0909
[3], first compound 0.0625 µg/mL, partner 0.0625 µg/mL | 0.0694
[3], first compound 0.125 µg/mL, partner 0.0156 µg/mL | 0.0621
[3], first compound 0.125 µg/mL, partner 0.0312 µg/mL | 0.0625
[3], first compound 0.125 µg/mL, partner 0.0625 µg/mL | 0.0779
[4], first compound 0.0125 µg/mL, partner 0.005 µg/mL | 0.754
[4], first compound 0.0125 µg/mL, partner 0.01 µg/mL | 0.786
[4], first compound 0.0125 µg/mL, partner 0.02 µg/mL | 0.804
[4], first compound 0.015 µg/mL, partner 0.01 µg/mL | 0.854
[4], first compound 0.015 µg/mL, partner 0.02 µg/mL | 0.817
[4], first compound 0.015 µg/mL, partner 0.04 µg/mL | 0.546
[4], first compound 0.025 µg/mL, partner 0.005 µg/mL | 0.561
[4], first compound 0.025 µg/mL, partner 0.01 µg/mL | 0.521
[4], first compound 0.025 µg/mL, partner 0.02 µg/mL | 0.524
[4], first compound 0.03 µg/mL, partner 0.01 µg/mL | 0.7
[4], first compound 0.03 µg/mL, partner 0.02 µg/mL | 0.677
[4], first compound 0.03 µg/mL, partner 0.04 µg/mL | 0.423
[4], first compound 0.05 µg/mL, partner 0.005 µg/mL | 0.278
[4], first compound 0.05 µg/mL, partner 0.01 µg/mL | 0.291
[4], first compound 0.05 µg/mL, partner 0.02 µg/mL | 0.29

Conditions | Bliss interaction score
[5] | 0.0308
[6] | 0.09
[7] | 0.0814
[8] | 0.105

COc1c(N2C[C@@H]3CCCN[C@@H]3C2)c(F)cc2c(=O)c(C(=O)O)cn(C3CC3)c12 [Moxifloxacin] + CCN(CC)CCOC(=O)c1ccc(N)cc1 [Procaine]
fitness
Conditions | partner 85.5 µg/mL | partner 171 µg/mL | partner 342 µg/mL
[1], first compound 0.0312 µg/mL | 0.0464 | 0.0462 | 0.0422
[1], first compound 0.0625 µg/mL | 0.051 | 0.0447 | 0.0546
[1], first compound 0.125 µg/mL | 0.0477 | 0.041 | 0.0508
[1], first compound 2 µg/mL | 0.0328 | 0.02 | 0.021
[1], first compound 4 µg/mL | 0.0283 | 0.0228 | 0.0275
[1], first compound 8 µg/mL | 0.017 | 0.0132 | 0.0182
[2], first compound 0.0075 µg/mL | 0.771 | 0.757 | 0.763
[3], first compound 0.0075 µg/mL | 0.781 | 0.876 | 0.898
[3], first compound 0.015 µg/mL | 0.712 | 0.744 | 0.773
[3], first compound 0.03 µg/mL | 0.619 | 0.677 | 0.669
[4], first compound 0.005 µg/mL | ≥ 1 | 0.996 | ≥ 1
[4], first compound 0.01 µg/mL | ≥ 1 | 0.986 | 0.974
[4], first compound 0.02 µg/mL | 0.966 | 0.929 | 0.874

fitness, one replicate
Conditions | partner 85.5 µg/mL | partner 171 µg/mL | partner 342 µg/mL
[3], first compound 0.06 µg/mL | 0.684 | 0.666 | 0.688
[3], first compound 0.12 µg/mL | 0.481 | 0.468 | 0.492
[4], first compound 0.0037 µg/mL | 0.927 | 0.926 | 0.826
[4], first compound 0.0075 µg/mL | ≥ 1 | 0.93 | 0.845
[4], first compound 0.015 µg/mL | 0.881 | 0.923 | 0.849

Conditions | Bliss interaction score
[5] | -0.015
[6] | 0.0617
[7] | -0.0665
[8] | 0.0674
